{"source": "patent US9850245B2", "about": "(Merck Sharp & Dohme Corp., priority 2014, dated 2017)", "key": {"ROMK": {"target": "ROMK (Homo sapiens (Human), UniProt P48048)", "sequence (P48048 whole entry)": "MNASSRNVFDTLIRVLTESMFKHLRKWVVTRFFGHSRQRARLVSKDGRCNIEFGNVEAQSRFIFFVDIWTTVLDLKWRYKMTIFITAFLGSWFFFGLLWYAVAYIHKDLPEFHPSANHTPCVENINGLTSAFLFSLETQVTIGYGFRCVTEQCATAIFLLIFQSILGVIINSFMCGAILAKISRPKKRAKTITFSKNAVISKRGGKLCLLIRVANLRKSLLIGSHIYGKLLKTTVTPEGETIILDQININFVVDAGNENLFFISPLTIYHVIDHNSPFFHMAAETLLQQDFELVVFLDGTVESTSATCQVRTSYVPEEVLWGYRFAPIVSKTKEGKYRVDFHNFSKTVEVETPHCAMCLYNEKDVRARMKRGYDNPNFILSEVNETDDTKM", "experiment": "Thallium Flux Assay", "assay_type": "cell-based", "protocol": "A Thallium Flux Assay was performed on the compounds of the Examples. This assay has been described previously; see, e.g., PCT Published Application WO 2013/062900."}, "Kir1.1 (ROMK1)": {"target": "Kir1.1 (ROMK1) (Homo sapiens (Human), UniProt P48048)", "sequence (P48048 whole entry)": "as above", "experiment": "Electrophysiology Assay (whole cell voltage clamp, IonWorks Quattro)", "assay_type": "cell-based", "details": "Chinese hamster ovary cells stably expressing Kir1.1; fractional block at voltage step to 0 mV; 6 min compound incubation", "protocol": "Blocking of Kir1.1 (ROMK1) currents was examined by whole cell voltage clamp (Hamill et. al. Pfluegers Archives 391:85-100 (1981)) using the IonWorks Quattro automated electrophysiology platform (Molecular Devices, Sunnyvale, Calif.). Chinese hamster ovary cells stably expressing Kir1.1 channels were maintained in T-75 flasks in cell culture media in a humidified 10% CO2 incubator at 37° C. Prior to an experiment, Kir1.1 expression was induced by overnight incubation with 1 mM sodium butyrate. On the day of the experiment, cells were dissociated with 2.5 mL of Versene (Invitrogen 15040-066), a non-enzymatic cell dissociation reagent, for approximately 6 min at 37° C. and suspended in 10 mL of bath solution containing (in mM): 150 NaCl, 10 KCl, 2.7 CaCl2, 0.5 MgCl2, and 5 HEPES, at pH 7.4. After centrifugation, the cell pellet was resuspended in approximately 4.0 mL of bath solution and placed in the IonWorks instrument. The intracellular solution consisted of (in mM): 80 K gluconate, 40 KCl, 20 KF, 3.2 MgCl2, 3 EGTA, and 5 Hepes, at pH 7.4. Electrical access to the cytoplasm was achieved by perforation in 0.13 mg/mL amphotericin B for 4 min. Amphotericin B (Sigma A-4888) was prepared as a 40 mg/mL solution in DMSO.\nVoltage protocols and current recordings were performed using the IonWorks HT software/hardware system. Currents were sampled at 1 kHz. There was no correction for liquid junction potentials. The test pulse, consisting of a 100 ms (millisecond) step to 0 mV (millivolts) from a holding potential of −70 mV, followed by a 100 ms voltage ramp from −70 mV to +70 mV, was applied before and after a 6 min compound incubation period. Test compounds were prepared by diluting DMSO stock solutions into the bath solution at 3× the final concentration and placed in the instrument in 96-well polypropylene plates. Current amplitudes were measured using the IonWorks software. To assess compound potency, the fractional block during the voltage step to 0 mV was calculated in Microsoft Excel (Microsoft, Redmond, Calif.), and dose-response curves were fitted with Igor Pro 4.0 (WaveMetrics, Lake Oswego, Oreg.)."}}, "data": [{"smiles": "CC1=C(N2CCOC3(CCN(CC(O)c4ccc(-n5cnnn5)nc4C)CC3)C2=O)COC1=O", "note": "(stereo not drawn) [Example 39, 9-(2-hydroxy-2-(2-methyl-6-(1H-tetrazol-1-yl)pyridin-3-yl)ethyl)-4-(4-methyl-5-oxo-2,5-dihydrofuran-3-yl)-1-oxa-4,9-diazaspiro[5.5]undecan-5-one]", "values": [{"measurement": "IC50", "setting": "ROMK", "result": 11.2, "unit": "nM"}, {"measurement": "IC50", "setting": "Kir1.1 (ROMK1)", "result": 13, "unit": "nM"}]}, {"smiles": "CC1=C(N2CCOC3(CCN(CCc4ccc(-n5cnnn5)cn4)CC3)C2)COC1=O", "note": "[Example 50]", "values": [{"measurement": "IC50", "setting": "ROMK", "result": 57.6, "unit": "nM"}, {"measurement": "IC50", "setting": "Kir1.1 (ROMK1)", "result": 16, "unit": "nM"}]}, {"smiles": "CC1=C(N2CCOC3(CCN(CCc4ccc(-n5cnnn5)nn4)CC3)C2=O)COC1=O", "note": "[Example 51, 9-(2-(6-(1H-tetrazol-1-yl)pyridazin-3-yl)ethyl)-4-(4-methyl-5-oxo-2,5-dihydrofuran-3-yl)-1-oxa-4,9-diazaspiro[5.5]undecan-5-one]", "values": [{"measurement": "IC50", "setting": "ROMK", "result": 26.8, "unit": "nM"}, {"measurement": "IC50", "setting": "Kir1.1 (ROMK1)", "result": 7.3, "unit": "nM"}]}]}
